Measurements taken from ChEMBL document CHEMBL1201862, “PubChem BioAssay data set” (2004).
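These data come from cells grown in 96-well plates and exposed to compound for 48 hours at five concentrations. GI50 = concentration required for 50% inhibition of growth.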 The source made the active and inactive calls. No stated cut-off is given here; in the data, active = GI50 up to about 1.1 µM and inactive = higher.

What was measured:
Assay in all cases: NCI tumour cell line growth inhibition, 48 h
A549 = test system: A549
ACHN = test system: ACHN
HCT-15 = test system: HCT-15
IGROV-1 = test system: IGROV-1
MDA-MB-231 = test system: MDA-MB-231
MDA-MB-435 = test system: MDA-MB-435
MDA-N = test system: MDA-N
OVCAR-3 = test system: OVCAR-3
PC-3 = test system: PC-3
SF-295 = test system: SF-295
SF-539 = test system: SF-539
SK-MEL-2 = test system: SK-MEL-2
SNB-19 = test system: SNB-19
SW-620 = test system: SW-620
T47D = test system: T47D
EKVX = test system: EKVX
HT-29 = test system: HT-29
Malme-3M = test system: Malme-3M
OVCAR-4 = test system: OVCAR-4
SNB-75 = test system: SNB-75

SMILES	GI50 (A549)	GI50 (ACHN)	GI50 (HCT-15) [µM]	GI50 (IGROV-1)	GI50 (MDA-MB-231)	GI50 (MDA-MB-435)	GI50 (MDA-N)	GI50 (OVCAR-3)	GI50 (PC-3)	GI50 (SF-295)	GI50 (SF-539)	GI50 (SK-MEL-2)	GI50 (SNB-19)	GI50 (SW-620)	GI50 (T47D)	GI50 (EKVX)	GI50 (HT-29)	GI50 (Malme-3M)	GI50 (OVCAR-4)	GI50 (SNB-75)
c1ccc(C2C3=C(CCCC3)Nc3nnnn32)cc1 (stereo not given)	64 µM (inactive)	82.4 µM (inactive)	> 100	> 100 µM (inactive)	> 100 µM (inactive)	72.6 µM (inactive)	98.4 µM (inactive)	37.8 µM (inactive)	68.1 µM (inactive)	57.4 µM (inactive)	> 100 µM (inactive)	34.4 µM (inactive)	> 100 µM (inactive)	> 100 µM (inactive)	25.4 µM (inactive)					
Cc1c(O)c(=O)ccn1CCc1ccc(O)cc1	32.9 µM (inactive)	13.9 µM (inactive)	4.82		2.2 µM (inactive)	42.2 µM (inactive)	11.9 µM (inactive)	11.2 µM (inactive)	25.9 µM (inactive)	24.3 µM (inactive)	29.4 µM (inactive)		15.6 µM (inactive)	44.8 µM (inactive)	45.6 µM (inactive)	20.4 µM (inactive)	20.4 µM (inactive)	22.5 µM (inactive)	22 µM (inactive)	
O=Cc1ccc(OCc2cccc(COc3ccc(/C=N\Nc4ccc([N+](=O)[O-])cc4[N+](=O)[O-])cc3)n2)cc1	> 100 µM (inactive)	> 100 µM (inactive)	> 100	> 100 µM (inactive)	43.6 µM (inactive)	> 100 µM (inactive)	> 100 µM (inactive)	> 100 µM (inactive)	> 100 µM (inactive)	> 100 µM (inactive)		89.5 µM (inactive)	> 100 µM (inactive)	> 100 µM (inactive)	> 100 µM (inactive)	> 100 µM (inactive)	> 100 µM (inactive)	> 100 µM (inactive)	> 100 µM (inactive)	
C[C@H]1CCCCC[C@@H]2CC(=O)CC2C(=O)CCC(=O)O1 (stereo not given in full)	> 100 µM (inactive)	> 100 µM (inactive)	> 100	> 100 µM (inactive)	> 100 µM (inactive)	> 100 µM (inactive)	> 100 µM (inactive)	> 100 µM (inactive)	> 100 µM (inactive)	> 100 µM (inactive)	> 100 µM (inactive)		> 100 µM (inactive)	> 100 µM (inactive)	> 100 µM (inactive)	> 100 µM (inactive)	> 100 µM (inactive)	> 100 µM (inactive)	> 100 µM (inactive)	9.02 µM (inactive)
C#CCCOC(=O)c1ccccc1OC(C)=O		> 100 µM (inactive)	> 100	> 100 µM (inactive)	> 100 µM (inactive)	> 100 µM (inactive)	> 100 µM (inactive)	> 100 µM (inactive)	> 100 µM (inactive)	> 100 µM (inactive)	> 100 µM (inactive)	> 100 µM (inactive)	> 100 µM (inactive)	> 100 µM (inactive)	> 100 µM (inactive)	> 100 µM (inactive)			> 100 µM (inactive)	> 100 µM (inactive)
COc1cc2oc(-c3ccc(O)cc3)cc(=O)c2c(OC)c1OC	> 100 µM (inactive)	> 100 µM (inactive)	> 100	> 100 µM (inactive)	> 100 µM (inactive)	> 100 µM (inactive)	> 100 µM (inactive)	> 100 µM (inactive)	> 100 µM (inactive)	> 100 µM (inactive)	> 100 µM (inactive)		> 100 µM (inactive)	> 100 µM (inactive)	63.5 µM (inactive)	> 100 µM (inactive)	> 100 µM (inactive)	> 100 µM (inactive)	> 100 µM (inactive)	18.4 µM (inactive)
